Data on 6 compounds can be found in PMC2897734 (Current topics in medicinal chemistry, 2009).

Holding throughout (assay type): binding
The target of test [1] is T1, putative adenylate kinase (Leishmania major, UniProt Q4Q7A6).
T1 sequence (Q4Q7A6 1-180): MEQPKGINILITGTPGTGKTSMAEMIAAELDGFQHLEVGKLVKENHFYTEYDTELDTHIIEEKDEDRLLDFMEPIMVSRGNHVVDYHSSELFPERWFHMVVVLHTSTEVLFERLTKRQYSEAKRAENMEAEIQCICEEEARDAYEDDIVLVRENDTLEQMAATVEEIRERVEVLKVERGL
Briefly: fragment cocktail soak, crystal electron density.

Test [2] deals with T2, uracil-DNA glycosylase (Leishmania naiffi, UniProt D0VWU0).
T2 sequence (D0VWU0 1-260): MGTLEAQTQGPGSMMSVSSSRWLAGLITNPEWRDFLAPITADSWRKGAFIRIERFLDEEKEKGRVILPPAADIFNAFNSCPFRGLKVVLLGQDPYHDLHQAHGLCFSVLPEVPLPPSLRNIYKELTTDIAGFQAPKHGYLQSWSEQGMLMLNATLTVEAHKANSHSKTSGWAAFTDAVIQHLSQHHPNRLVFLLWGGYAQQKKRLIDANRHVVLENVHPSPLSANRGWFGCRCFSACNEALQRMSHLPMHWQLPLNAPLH
Put plainly: fragment cocktail soak, crystal structure.

Test [3] has as its target T2, uracil-DNA glycosylase. Briefly: fragment cocktail soak, crystal structure. The source holds these as a separate data set.
Test [4] deals with coproporphyrinogen III oxidase (Leishmania major, UniProt P84155). Briefly: fragment cocktail soak, crystal structure.
coproporphyrinogen III oxidase, sequence (P84155 whole entry, the tested form may be a part): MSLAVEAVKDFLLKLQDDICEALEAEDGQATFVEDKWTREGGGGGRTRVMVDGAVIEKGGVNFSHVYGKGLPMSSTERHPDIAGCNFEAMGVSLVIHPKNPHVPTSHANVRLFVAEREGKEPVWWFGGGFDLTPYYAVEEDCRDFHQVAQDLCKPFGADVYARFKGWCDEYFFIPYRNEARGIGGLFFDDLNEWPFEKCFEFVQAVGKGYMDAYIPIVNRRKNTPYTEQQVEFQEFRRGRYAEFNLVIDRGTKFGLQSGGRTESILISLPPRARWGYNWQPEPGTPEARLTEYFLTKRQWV
Test [5] has as its target T3, phosphoglycerate mutase (PGM) (Plasmodium falciparum, UniProt Q8IIG6).
T3 sequence (Q8IIG6 1-250): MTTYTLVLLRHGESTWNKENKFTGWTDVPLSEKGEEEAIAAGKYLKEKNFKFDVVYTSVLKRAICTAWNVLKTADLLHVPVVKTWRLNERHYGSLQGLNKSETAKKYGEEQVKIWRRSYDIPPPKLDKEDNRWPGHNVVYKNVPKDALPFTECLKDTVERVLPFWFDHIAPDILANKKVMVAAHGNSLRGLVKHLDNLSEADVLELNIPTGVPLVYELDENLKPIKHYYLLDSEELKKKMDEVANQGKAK
Briefly: fragment cocktail soak, crystal electron density.

For `Cc1cc(N)c2ccccc2n1` [4-amino-2-methylquinoline], the “fragment cocktail soak, crystal electron density” value in test [1] was “Electron density for 4-amino-2-methylquinoline when bound to L.major adenylate kinase (left)”.

For the compound `c1cc(N2CCOCC2)ccn1` [4-morpholinopyridine], on uracil-DNA glycosylase [2], the “fragment cocktail soak, crystal structure” value is given as “Fragments bound to L.naiffi uracil-DNA glycosylase: 4-morpholinopyridine (left upper)”.

As for `COc1ccc(Cl)cc1C(=O)O` [5-chloro-2-methoxybenzoic acid], the IC50 against uracil-DNA glycosylase [3] was ~15 mM.

Regarding `O=C(O)c1cc2cc(F)ccc2[nH]1` [5-fluoroindole-2-carboxylic acid], the “fragment cocktail soak, crystal structure” value in test [4] was “Fragments from two different cocktails were found to bind: 5-fluoroindole-2-carboxylic acid (PDB: 3DWS)”.

As for `O=C(O)c1ccc(-c2ccccc2)o1` [5-phenyl-2-furoic acid], the “fragment cocktail soak, crystal electron density” value in test [5] is given as “Electron density for 5-Phenyl-2-furoic acid when bound to P.falciparum PGM (left)”.

For the compound `O=C(O)c1ccc2cccc(O)c2n1` [8-hydroxyquinoline-2-carboxylic acid], on uracil-DNA glycosylase [2], the “fragment cocktail soak, crystal structure” value was “DMSO and 8-hydroxyquinoline-2-carboxylic acid (left lower)”.

The IC50 is the midpoint of a concentration-inhibition curve. Low readings indicate greater potency, high ones weaker potency.
